According to patent US12527775B2 (priority 2020, dated 2026):
Like-named read-outs stand apart in the source and are kept apart here.

Tests used:
[1] = biological target: human recombinant 5-HT2A receptor (Homo sapiens (Human), UniProt P28223); test: biochemical; type: binding; conditions: [3H]-Ketanserin 3 nmol/L, Jump-In HEK cell membrane
Protocol: Test Example 1: 5-HT2A Receptor Binding Inhibition Test
(Each Experimental Condition)
Cell membrane: 15 μg of Jump-In HEK cell membrane (expressing human recombinant 5-HT2A receptor) per well
Assay buffer: Tris-HCl 50 mmol/L (pH 7.4) containing NaCl 120 mmol/L, MgCl2·6H2O 1 mmol/L, KCl 5 mmol/L, 0.1% BSA and CaCl2 2 mmol/L
Radioactive ligand: [^3H]-Ketanserin with a final concentration of 3 nmol/L
(§1) Non-specific ligand: Serotonin HCl with a final concentration of 500 μmol/L
(§2) The Kd value was calculated when the lot of cell membrane was changed. […] The radioactive ligand solution was serially diluted from 16 nM at a 2-fold ratio and the count was confirmed with a liquid scintillator. […] After that, filtration was performed with Cell harvester (PerkinElmer). The radioactive ligand solution was dispensed into an empty well of the GF/B UniFilter plate at 10 μL/well. […] The GF/B UniFilter plate was allowed to stand overnight at room temperature. […] The Saturation curve was drawn from the measured value, and the Kd value was calculated from the slope of the Scatchard Plot.
(§3) (Binding Test of the Compound According to the Present Invention)
(§4) After that, filtration was performed with Cell harvester (PerkinElmer).

[2] = biological target: human recombinant 5-HT2C receptor (Homo sapiens (Human), UniProt P28335); test: biochemical; type: binding
Sequence of human recombinant 5-HT2C receptor (P28335 whole entry, looked up): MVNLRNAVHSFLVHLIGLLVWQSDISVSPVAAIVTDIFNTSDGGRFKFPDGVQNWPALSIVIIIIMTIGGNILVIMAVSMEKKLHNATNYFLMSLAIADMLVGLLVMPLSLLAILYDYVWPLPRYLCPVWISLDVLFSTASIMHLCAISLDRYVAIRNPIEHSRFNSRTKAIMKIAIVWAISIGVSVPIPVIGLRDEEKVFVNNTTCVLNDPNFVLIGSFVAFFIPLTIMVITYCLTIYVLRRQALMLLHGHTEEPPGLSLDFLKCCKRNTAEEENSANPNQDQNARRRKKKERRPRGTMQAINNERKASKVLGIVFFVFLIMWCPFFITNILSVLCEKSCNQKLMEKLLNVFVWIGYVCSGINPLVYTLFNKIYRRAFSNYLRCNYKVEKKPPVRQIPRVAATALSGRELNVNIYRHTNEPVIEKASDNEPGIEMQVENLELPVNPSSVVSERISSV
Protocol: Test Example 2: 5-HT2C Receptor Binding Inhibition Test
(Each experimental condition)
Cell membrane: 0.5 μg of Jump-In HEK cell membrane (expressing human recombinant 5-HT2C receptor) per well
Assay buffer: Tris-HCl 50 mmol/L (pH 7.4) containing NaCl 120 mmol/L, MgCl2·6H2O 1 mmol/L, KCl 5 mmol/L, 0.1% BSA and CaCl2) 2 mmol/L
Radioactive ligand: [^3H]-Mesulergine with a final concentration of 1 nmol/L
as §1, §2, §3, §4

hERG channel (IKr) = hERG channel (IKr) (Homo sapiens (Human), UniProt Q12809); test: hERG test (automated whole cell patch clamp, IKr); type: cell-based; conditions: CHO cells expressing hERG channel, pH 7.4, compound concentration of 3 μmol/L, read-out: hERG inhibition rate (tail peak current IKr)
Sequence of hERG channel (IKr) (Q12809 whole entry): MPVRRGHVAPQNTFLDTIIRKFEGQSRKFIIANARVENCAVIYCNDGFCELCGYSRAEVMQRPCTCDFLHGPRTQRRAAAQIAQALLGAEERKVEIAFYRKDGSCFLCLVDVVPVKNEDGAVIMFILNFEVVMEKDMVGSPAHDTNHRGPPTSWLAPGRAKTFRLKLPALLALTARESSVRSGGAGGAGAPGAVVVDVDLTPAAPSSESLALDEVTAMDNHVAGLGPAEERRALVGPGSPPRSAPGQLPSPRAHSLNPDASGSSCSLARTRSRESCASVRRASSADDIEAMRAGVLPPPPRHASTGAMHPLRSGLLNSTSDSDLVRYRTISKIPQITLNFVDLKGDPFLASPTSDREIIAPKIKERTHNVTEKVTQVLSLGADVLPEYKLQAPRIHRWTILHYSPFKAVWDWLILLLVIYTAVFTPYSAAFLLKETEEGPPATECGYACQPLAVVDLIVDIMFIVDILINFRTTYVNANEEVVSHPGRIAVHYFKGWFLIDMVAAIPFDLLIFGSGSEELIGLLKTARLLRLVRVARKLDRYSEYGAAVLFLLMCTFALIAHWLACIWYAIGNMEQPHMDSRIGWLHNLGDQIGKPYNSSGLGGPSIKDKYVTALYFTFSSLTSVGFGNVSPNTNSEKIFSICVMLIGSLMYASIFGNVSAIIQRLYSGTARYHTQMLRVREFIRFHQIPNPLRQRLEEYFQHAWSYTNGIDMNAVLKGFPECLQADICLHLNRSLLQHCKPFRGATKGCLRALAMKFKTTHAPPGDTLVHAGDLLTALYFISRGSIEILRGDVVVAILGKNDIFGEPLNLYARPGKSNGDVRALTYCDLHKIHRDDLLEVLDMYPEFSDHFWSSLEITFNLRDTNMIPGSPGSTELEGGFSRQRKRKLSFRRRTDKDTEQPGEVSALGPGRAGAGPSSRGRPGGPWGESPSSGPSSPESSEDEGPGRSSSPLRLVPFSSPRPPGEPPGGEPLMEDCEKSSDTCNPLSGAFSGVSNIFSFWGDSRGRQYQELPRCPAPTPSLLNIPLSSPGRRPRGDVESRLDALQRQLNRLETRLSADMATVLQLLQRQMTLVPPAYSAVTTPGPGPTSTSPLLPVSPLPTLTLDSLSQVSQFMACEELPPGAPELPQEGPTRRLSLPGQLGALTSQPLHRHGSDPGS
Excerpt: Test Example 3: hERG Test
For the purpose of assessing risk of an electrocardiogram QT interval prolongation of the compound according to the present invention, effects of the compound according to the present invention on delayed rectifier K^+ current (IKr), which plays an important role in the ventricular repolarization process, was studied using CHO cells expressing human ether-a-go-go related gene (hERG) channel.
After a cell was retained at a membrane potential of −80 mV by whole cell patch clamp method using an automated patch clamp system (QPatch; Sophion Bioscience A/S) and gave a leak potential of −50 mV, IKr induced by depolarization pulse stimulation at +20 mV for 2 seconds, and further, repolarization pulse stimulation at −50 mV for 2 seconds, was recorded. A vehicle, which was the 0.1% dimethyl sulfoxide solution in extracellular solution (NaCl: 145 mmol/L, KCl: 4 mmol/L, CaCl2: 2 mmol/L, MgCl2: 1 mmol/L, glucose:10 mmol/L, HEPES (4-(2-hydroxyethyl)-1-piperazineethanesulfonic acid): 10 mmol/L, pH7.4), or the compound according to the present invention had been dissolved at an objective concentration in the extracellular solution, each of the extracellular solution was applied to the cell at room temperature for 15 minutes or more. From the recording IKr, an absolute value of the tail peak current was measured based on the current value at the resting membrane potential using analysis software (QPatch Assay software; Sophion Bioscience A/S). The % inhibition of the tail peak current after application of the compound according to the present invention relative to the tail peak current after application of the vehicle was calculated, and further correction was performed using the inhibition rate result of the negative control to assess influence of the compound according to the present invention on IKr.

[3] = class symbols, read-out: h-5-HT2A Ki
[4] = human serotonin 5-HT2C receptor binding, [3H]-Mesulergine, read-out: h-5-HT2C Ki
[5] = read-out: human serotonin 5-HT2A receptor binding activity, Ki
[6] = [3H]-Mesulergine 1 nmol/L, Jump-In HEK cell membrane, read-out: human serotonin 5-HT2C receptor binding activity, Ki

SMILES | Ki [1, 3] | Ki [2, 4] | Ki [1, 5] | Ki [2, 6] | inhibition at 3 μmol/L (hERG channel (IKr))
CCCOc1ccc(CNC(=O)N(Cc2ccn(C)n2)[C@H]2CCNC[C@H]2F)cc1 [Compound I-122] | < 10 nM | 10 to 100 nM | – | – | –
CCCOc1ccc(CNC(=O)N(Cc2cc(C)n(C)n2)[C@H]2CCNC[C@H]2F)cc1 [Compound I-123] | < 10 nM | 10 to 100 nM | – | – | –
CC(C)COc1ccc(CNC(=O)N(Cc2ccn(C)c2)[C@H]2CCNC[C@H]2F)cc1 [Compound I-124] | – | – | 0.69 nM | 2.22 nM | –
CN1CCC(N(Cc2ccc(F)cn2)C(=O)NCc2ccc(C3CC3)cc2)CC1 [Compound I-125] | < 10 nM | 10 to 100 nM | – | – | –
CCCOc1ccc(CNC(=O)N(Cc2cc(C)n(C)n2)[C@H]2CCN(C)CC23CC3)cc1 [Compound I-126] | – | – | 1.92 nM | 1.09 nM | –
CCCOc1ccc(CNC(=O)N(Cc2cc(C)n(C)n2)[C@@H]2CCN(C)CC23CC3)cc1 [Compound I-127] | > 100 nM | > 100 nM | – | – | –
CC(C)CNc1ccc(CNC(=O)N(Cc2ccc(F)cn2)[C@H]2CCNC[C@H]2F)cc1 [Compound I-129] | – | – | 0.85 nM | 1.51 nM | 31.4%
COCc1ccc(CNC(=O)N(Cc2ccc(C)cn2)C2CCN(C)CC2)cc1 [Compound I-130] | – | – | 15.3 nM | 348 nM | –
Cc1cc(CN(C(=O)NCc2ccc(OCC(C)C)cc2)[C@H]2CCNC[C@H]2F)nn1C [Compound I-133] | – | – | – | – | 6.6%
CCCOc1ccc(CNC(=O)N(Cc2ccn(C)c2)[C@H]2CCNC[C@H]2F)cc1 [Compound I-134] | – | – | 0.475 nM | 3.2 nM | 31.2%
CCCOc1ccc(CNC(=O)N(Cc2cc(C)n(C)n2)[C@H]2CCN(C)C[C@H]2F)cc1 [Compound I-139] | – | – | 2.93 nM | 11.1 nM | 14.2%
CCCOc1ccc(CNC(=O)N(Cc2ccn(C)c2)[C@H]2CCN(C)C[C@H]2F)cc1 [Compound I-141] | – | – | – | – | 49.3%
CC(C)COc1ccc(CNC(=O)N(Cc2cc(CF)n(C)n2)[C@H]2CCN(C)C[C@H]2F)cc1 [Compound I-146] | – | – | 1.94 nM | 4.96 nM | –
CC(C)CN(C)c1ccc(CNC(=O)N(Cc2ccc(F)cn2)[C@H]2CCN(C)C[C@H]2F)cc1 [Compound I-147] | – | – | 0.758 nM | 2.12 nM | –
